The values below come from the supplement of paper PMC11061612.

Assay [1] concerns JVM-3 (B-Cell Non-Hodgkin's Lymphoma). The assay is described as follows: Bliss excess, mean over the matrix (fraction); higher = more synergy. A digest of the protocol: (§1)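 Bliss excess equals the observed combination effect minus the expected value EA + EB − EA·EB, where EA and EB are the effects of each agent alone. Combination Emax is the second-highest inhibition within the matrix. Inhibition was scaled from CellTiter-Glo 2.0 luminescence, with 0 set by vehicle wells and 1 by blank wells, after 72 hours of two-drug dosing of cells plated in 1536-well plates.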

For assay [2] the test system is unchanged. The assay is described as follows: combination Emax (second highest fraction inhibited in the dose matrix, 72 h); higher = more inhibition; extreme values may be limits of the assay. Summed up: as §1
Assay [3] has as its system HSC-4 (Oral Cavity Carcinoma). The assay is described as above. Summed up:
as §1

The test system of assay [4] is BT-549 (Breast Carcinoma). Described as above. Summed up: as §1

For `CN(C)CCCOc1ccc(-c2ccc3ncc4c(c3c2)n(C2CCOCC2)c(=O)n4C)cn1` [AZD0156] + C=CCn1c(=O)c2cnc(Nc3ccc(N4CCN(C)CC4)cc3)nc2n1-c1cccc(C(C)(C)O)n1 [AZD1775] (first compound max 1 µM, partner max 1 µM), in assay [1], the Bliss excess is -0.0347. Further, the figures for the “combination Emax” value in assay [2], in assay [3] and in assay [4] were 0.895, 0.389 and 0.613, respectively.

For the compound `CN(C)CCCOc1ccc(-c2ccc3ncc4c(c3c2)n(C2CCOCC2)c(=O)n4C)cn1` [AZD0156] + CCN(CCO)CCCOc1ccc2c(Nc3cc(CC(=O)Nc4cccc(F)c4)[nH]n3)ncnc2c1 [AZD2811] (first compound max 1 µM, 7x7, partner max 1 µM), in assay [1], the Bliss excess is -0.0252. In addition, the figures for the “combination Emax” value in assay [2], in assay [3] and in assay [4] were 0.543, 0.0498 and 0.221, respectively.

As to `CN(C)CCCOc1ccc(-c2ccc3ncc4c(c3c2)n(C2CCOCC2)c(=O)n4C)cn1` [AZD0156] + C[C@@H]1COCCN1C2=NC(=NC(=C2)C3(CC3)[S@](=N)(=O)C)C4=C5C=CNC5=NC=C4 [AZD6738] (first compound max 1 µM, 7x7, partner max 10 µM), the Bliss excess in assay [1] was -0.0183. The “combination Emax” value in assay [2] is 0.783; in assay [3], 0.685; in assay [4], 0.46.

For `CN(C)CCCOc1ccc(-c2ccc3ncc4c(c3c2)n(C2CCOCC2)c(=O)n4C)cn1` [AZD0156] + O=C(c1cc(Cc2n[nH]c(=O)c3ccccc23)ccc1F)N1CCN(C(=O)C2CC2)CC1 [Olaparib] (first compound max 3 µM, partner max 3 µM), the Bliss excess in assay [1] turned out to be 0.234. Also, the “combination Emax” value in assay [2] stood at 0.684; in assay [3], 0.234; in assay [4] it was 0.102.

Take `C=CCn1c(=O)c2cnc(Nc3ccc(N4CCN(C)CC4)cc3)nc2n1-c1cccc(C(C)(C)O)n1` [AZD1775] + C1CN(CCC1(C(=O)N[C@@H](CCO)C2=CC=C(C=C2)Cl)N)C3=NC=NC4=C3C=CN4 [Capivasertib] (first compound max 3 µM, partner max 3 µM): in assay [1], the Bliss excess was found to be 0.0012. Also, the “combination Emax” value in assay [2] turned out to be 0.971; in assay [3] it was 0.629; in assay [4], 0.638.

`C=CCn1c(=O)c2cnc(Nc3ccc(N4CCN(C)CC4)cc3)nc2n1-c1cccc(C(C)(C)O)n1` [AZD1775] + C[C@@H]1COCCN1C2=NC(=NC(=C2)C3(CC3)[S@](=N)(=O)C)C4=C5C=CNC5=NC=C4 [AZD6738] (first compound max 1 µM, partner max 10 µM): the Bliss excess in assay [1] was -0.0178. Besides, the “combination Emax” value in assay [2] was found to be 0.876; in assay [3], 0.662; in assay [4] it was 0.808.

As to `C=CCn1c(=O)c2cnc(Nc3ccc(N4CCN(C)CC4)cc3)nc2n1-c1cccc(C(C)(C)O)n1` [AZD1775] + O=C(c1cc(Cc2n[nH]c(=O)c3ccccc23)ccc1F)N1CCN(C(=O)C2CC2)CC1 [Olaparib] (first compound max 1 µM, partner max 10 µM), the Bliss excess in assay [1] was -0.109. Also, the “combination Emax” value is 0.895 in assay [2], 0.461 in assay [3] and 0.551 in assay [4].

With `CCN(CCO)CCCOc1ccc2c(Nc3cc(CC(=O)Nc4cccc(F)c4)[nH]n3)ncnc2c1` [AZD2811] + C=CCn1c(=O)c2cnc(Nc3ccc(N4CCN(C)CC4)cc3)nc2n1-c1cccc(C(C)(C)O)n1 [AZD1775] (first compound max 1 µM, partner max 1 µM), in assay [1], the Bliss excess came out at 0.0365. In addition, the “combination Emax” value in assay [2] is 0.775; in assay [3] it was 0.367; in assay [4] it was 0.62.

Take `CCN(CCO)CCCOc1ccc2c(Nc3cc(CC(=O)Nc4cccc(F)c4)[nH]n3)ncnc2c1` [AZD2811] + C[C@@H]1COCCN1C2=NC(=NC(=C2)C3(CC3)[S@](=N)(=O)C)C4=C5C=CNC5=NC=C4 [AZD6738] (first compound max 1 µM, 7x7, partner max 10 µM): the Bliss excess in assay [1] is -0.0101. The “combination Emax” value in assay [2] stood at 0.723; in assay [3], 0.677; in assay [4], 0.487.

Regarding `CCN(CCO)CCCOc1ccc2c(Nc3cc(CC(=O)Nc4cccc(F)c4)[nH]n3)ncnc2c1` [AZD2811] + O=C(c1cc(Cc2n[nH]c(=O)c3ccccc23)ccc1F)N1CCN(C(=O)C2CC2)CC1 [Olaparib] (first compound max 1 µM, 7x7, partner max 10 µM), the Bliss excess in assay [1] is -0.0119. Further, the “combination Emax” value in assay [2] was determined as 0.45; in assay [3], 0.245; in assay [4], 0.244.

Regarding `CN(CCO)CC[C@H](CSc1ccccc1)Nc1ccc(S(=O)(=O)NC(=O)c2ccc(N3CCC([C@@H](O)c4ccccc4-c4ccc(Cl)cc4)CC3)cc2)cc1S(=O)(=O)C(F)(F)F` [AZD4320] + CN(C)CCCOc1ccc(-c2ccc3ncc4c(c3c2)n(C2CCOCC2)c(=O)n4C)cn1 [AZD0156] (first compound max 1 µM, 7x7, partner max 1 µM), the Bliss excess in assay [1] was 0.0006. The entries for the “combination Emax” value in assay [2], in assay [3] and in assay [4] were 0.92, 0.245 and 0.227, respectively.

Turning to `NC1(C(=O)N[C@@H](CCO)c2ccc(Cl)cc2)CCN(c2ncnc3[nH]ccc23)CC1` [Capivasertib] + CC(C)n1c(=O)n(C)c2cnc3cc(F)c(-c4ccc(OCCCN5CCCCC5)nc4)cc3c21 [AZD1390] (first compound max 10 µM, 7x7, partner max 0.3 µM), the “combination Emax” value in assay [3] stood at 0.337; in assay [4], 0.353.

As to `NC1(C(=O)N[C@@H](CCO)c2ccc(Cl)cc2)CCN(c2ncnc3[nH]ccc23)CC1` [Capivasertib] + CCN(CCO)CCCOc1ccc2c(Nc3cc(CC(=O)Nc4cccc(F)c4)[nH]n3)ncnc2c1 [AZD2811] (first compound max 10 µM, 7x7, partner max 1 µM), the “combination Emax” value in assay [3] was 0.514; in assay [4], 0.435.

Take `NC1(C(=O)N[C@@H](CCO)c2ccc(Cl)cc2)CCN(c2ncnc3[nH]ccc23)CC1` [Capivasertib] + COc1nnc2ccc(N3CCC(c4ccc(OCCN5CCN(C)C(=O)[C@H]5C)cc4)CC3)nn12 [AZD5153] (first compound max 10 µM, 7x7, partner max 1 µM): the results for the “combination Emax” value in assay [3] and in assay [4] were 0.529 and 0.602, respectively.

For `NC1(C(=O)N[C@@H](CCO)c2ccc(Cl)cc2)CCN(c2ncnc3[nH]ccc23)CC1` [Capivasertib] + C[C@@H]1COCCN1C2=NC(=NC(=C2)C3(CC3)[S@](=N)(=O)C)C4=C5C=CNC5=NC=C4 [AZD6738] (first compound max 10 µM, 7x7, partner max 10 µM), the “combination Emax” value amounted to 0.73 in assay [3] and 0.511 in assay [4].

As for `NC1(C(=O)N[C@@H](CCO)c2ccc(Cl)cc2)CCN(c2ncnc3[nH]ccc23)CC1` [Capivasertib] + Cn1cnc2c(F)c(Nc3ccc(Br)cc3Cl)c(C(=O)NOCCO)cc21 [Selumetinib] (first compound max 10 µM, 7x7, partner max 10 µM), the entries for the “combination Emax” value in assay [3] and in assay [4] were 0.609 and 0.41, respectively.

On to `CS(=O)(=O)CCNCc1ccc(-c2ccc3ncnc(Nc4ccc(OCc5cccc(F)c5)c(Cl)c4)c3c2)o1` [Lapatinib] + C[C@@H](Oc1cc(-c2cnn(C3CCNCC3)c2)cnc1N)c1c(Cl)ccc(F)c1Cl [Crizotinib] (first compound max 10 µM, 7x7, partner max 10 µM), for which the “combination Emax” value is 0.465 in assay [3] and 0.609 in assay [4].

As to `CS(=O)(=O)CCNCc1ccc(-c2ccc3ncnc(Nc4ccc(OCc5cccc(F)c5)c(Cl)c4)c3c2)o1` [Lapatinib] + NC1(c2ccc(-c3nc4ccn5c(=O)[nH]nc5c4cc3-c3ccccc3)cc2)CCC1 [MK-2206] (first compound max 10 µM, 7x7, partner max 10 µM), the “combination Emax” value was found to be 0.42 in assay [3] and 0.583 in assay [4].

In the case of `CC(=O)c1c(C)c2cnc(Nc3ccc(N4CCNCC4)cn3)nc2n(C2CCCC2)c1=O` [Palbociclib] + CC1(C)CCC(CN2CCN(c3ccc(C(=O)NS(=O)(=O)c4ccc(NCC5CCOCC5)c([N+](=O)[O-])c4)c(Oc4cnc5[nH]ccc5c4)c3)CC2)=C(c2ccc(Cl)cc2)C1 [Venetoclax] (first compound max 10 µM, 7x7, partner max 1 µM), the entries for the “combination Emax” value in assay [3] and in assay [4] were 0.121 and 0.308, respectively.

In the case of `CC(=O)c1c(C)c2cnc(Nc3ccc(N4CCNCC4)cn3)nc2n(C2CCCC2)c1=O` [Palbociclib] + Cc1c2c(nn1C)CSCc1cc(n(C)n1)CSc1cc(c3ccccc3c1)OCCCc1c(C(=O)O)n(C)c3c-2c(Cl)ccc13 [AZD5991] (first compound max 10 µM, 7x7, partner max 1 µM), the “combination Emax” value worked out at 0.106 in assay [3] and 0.455 in assay [4].

Take `CC(=O)c1c(C)c2cnc(Nc3ccc(N4CCNCC4)cn3)nc2n(C2CCCC2)c1=O` [Palbociclib] + Cn1cnc2c(F)c(Nc3ccc(Br)cc3Cl)c(C(=O)NOCCO)cc21 [Selumetinib] (first compound max 10 µM, 7x7, partner max 10 µM): the results for the “combination Emax” value in assay [3] and in assay [4] were 0.261 and 0.226, respectively.

For the compound `CCc1c2c(nc3ccc(O)cc13)-c1cc3c(c(=O)n1C2)COC(=O)[C@]3(O)CC` [SN-38] + O=C(c1cc(Cc2n[nH]c(=O)c3ccccc23)ccc1F)N1CCN(C(=O)C2CC2)CC1 [Olaparib] (first compound max 0.3 µM, 7x7, partner max 10 µM), in assay [1], the Bliss excess was 0.0365. Further, the figures for the “combination Emax” value in assay [2] and in assay [4] were 0.998 and 0.636, respectively.

In the case of `Cn1cnc2c(F)c(Nc3ccc(Br)cc3Cl)c(C(=O)NOCCO)cc21` [Selumetinib] + C=CCn1c(=O)c2cnc(Nc3ccc(N4CCN(C)CC4)cc3)nc2n1-c1cccc(C(C)(C)O)n1 [AZD1775] (first compound max 10 µM, partner max 1 µM), the “combination Emax” value is 0.427 in assay [3] and 0.715 in assay [4].

As to `Cn1cnc2c(F)c(Nc3ccc(Br)cc3Cl)c(C(=O)NOCCO)cc21` [Selumetinib] + CC(C)n1c(=O)n(C)c2cnc3cc(F)c(-c4ccc(OCCCN5CCCCC5)nc4)cc3c21 [AZD1390] (first compound max 10 µM, 7x7, partner max 0.3 µM), the “combination Emax” value in assay [3] came to 0.132; in assay [4] it was 0.117.

As to `Cn1cnc2c(F)c(Nc3ccc(Br)cc3Cl)c(C(=O)NOCCO)cc21` [Selumetinib] + CCN(CCO)CCCOc1ccc2c(Nc3cc(CC(=O)Nc4cccc(F)c4)[nH]n3)ncnc2c1 [AZD2811] (first compound max 10 µM, 7x7, partner max 1 µM), the “combination Emax” value was determined as 0.345 in assay [3] and 0.3 in assay [4].

Take `Cn1cnc2c(F)c(Nc3ccc(Br)cc3Cl)c(C(=O)NOCCO)cc21` [Selumetinib] + C[C@@H]1COCCN1C2=NC(=NC(=C2)C3(CC3)[S@](=N)(=O)C)C4=C5C=CNC5=NC=C4 [AZD6738] (first compound max 10 µM, 7x7, partner max 10 µM): the “combination Emax” value amounted to 0.595 in assay [3] and 0.464 in assay [4].
